Assay results as given in patent publication US10111875B2, “Pyrrolopyrimidine compounds and uses thereof” (HUTCHISON MEDIPHARMA LIMITED, priority 2010, dated 2018).

Each compound was assayed against Recombinant human JAK1 catalytic domain (Homo sapiens (Human), UniProt P23458) (assay: JAK1 kinase assay (Z'-LYTE Tyr 6 Peptide)). Conditions: JAK1 kinase assay, 0.3 uM concentration; read-out: inhibition percentage (IR %).
Assay type: biochemical
Method: JAK1/2/3 kinase assay are performed in vitro using Kit-Tyr 6 Peptide (Invitrogen, Cat. No. PV4122). TYK2 kinase assay are performed in vitro using Z′-LYTE™ Kinase Assay Kit-Tyr 3 Peptide (Invitrogen, Cat. No. PV3192). […] All compounds are initially tested at 8 different concentrations (1 μM down to 0.0003 μM) using a 1:3 serial dilution scheme.

Sequence of Recombinant human JAK1 catalytic domain (P23458 875-1153): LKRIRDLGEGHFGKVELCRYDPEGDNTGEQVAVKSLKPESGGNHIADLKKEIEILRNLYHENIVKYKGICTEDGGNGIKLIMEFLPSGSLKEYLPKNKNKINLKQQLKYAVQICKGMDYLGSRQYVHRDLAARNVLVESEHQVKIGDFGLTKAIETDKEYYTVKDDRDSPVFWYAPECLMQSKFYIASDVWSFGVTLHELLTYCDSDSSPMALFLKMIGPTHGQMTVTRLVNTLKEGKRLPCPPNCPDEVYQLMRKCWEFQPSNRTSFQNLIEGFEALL

SMILES	inhibition at 0.3 µM [%]
CN(c1ncccc1C#N)[C@@H]1CCN(c2ncnc3[nH]ccc23)C1 [Compound 159]	50 to 100
CN(c1ccc(-c2nn[nH]n2)cn1)[C@@H]1CCN(c2ncnc3[nH]ccc23)C1 [Compound 160, (R)—N-(1-(7H-pyrrolo[2,3-d]pyrimidin-4-yl)pyrrolidin-3-yl)-N-methyl-5-(2H-tetrazol-5-yl)pyridin-2-amine]	20 to 50
CN(c1ccc2[nH]c(=O)[nH]c2n1)[C@@H]1CCN(c2ncnc3[nH]ccc23)C1 [Compound 164, (R)-5-((1-(7H-pyrrolo[2,3-d]pyrimidin-4-yl)pyrrolidin-3-yl)(methyl)amino)-1H-imidazo[4,5-b]pyridin-2(3H)-one]	50 to 100
CN(c1ccc(C#N)cc1N)[C@@H]1CCN(c2ncnc3[nH]ccc23)C1 [Compound 166, (R)-4-((1-(7H-pyrrolo[2,3-d]pyrimidin-4-yl)pyrrolidin-3-yl)(methyl)amino)-3-aminobenzonitrile]	20 to 50
CN(c1ccc2nn[nH]c2n1)[C@@H]1CCN(c2ncnc3[nH]ccc23)C1 [Compound 167, (R)—N-(1-(7H-pyrrolo[2,3-d]pyrimidin-4-yl)pyrrolidin-3-yl)-N-methyl-3H-[1,2,3]triazolo[4,5-b]pyridin-5-amine]	50 to 100
CN(c1ccc(C(=O)NC2CC2)cn1)[C@@H]1CCN(c2ncnc3[nH]ccc23)C1 [Compound 171, (R)-6-((1-(7H-pyrrolo[2,3-d]pyrimidin-4-yl)pyrrolidin-3-yl)(methyl)amino)-N-cyclopropylnicotinamide]	50 to 100
CN(C)C(=O)c1ccc(N(C)[C@@H]2CCN(c3ncnc4[nH]ccc34)C2)nc1 [Compound 173]	20 to 50
CN(c1ccc(C(=O)Nc2cccc(F)c2)cn1)[C@@H]1CCN(c2ncnc3[nH]ccc23)C1 [Compound 177]	50 to 100
CN(C(=O)c1ccc(N(C)[C@@H]2CCN(c3ncnc4[nH]ccc34)C2)nc1)c1ccc(F)cc1 [Compound 178]	50 to 100
COc1ccc(NC(=O)c2ccc(N(C)[C@@H]3CCN(c4ncnc5[nH]ccc45)C3)nc2)cc1 [Compound 183]	50 to 100
CN(c1ccc(C(=O)NC2c3ccccc3CC2O)cc1F)[C@@H]1CCN(c2ncnc3[nH]ccc23)C1 (some centres unmarked) [Compound 184]	50 to 100
Cc1ccc(NC(=O)c2ccc(N(C)[C@@H]3CCN(c4ncnc5[nH]ccc45)C3)nc2)cc1 [Compound 186]	50 to 100
CN(c1ccc(C(=O)NCc2ccccc2)cc1F)[C@@H]1CCN(c2ncnc3[nH]ccc23)C1 [Compound 187]	50 to 100
CN(c1ccc(C(=O)Nc2ccc(F)cc2)cn1)[C@@H]1CCN(c2ncnc3[nH]ccc23)C1 [Compound 191]	50 to 100
CN(c1ccc(C(=O)Nc2ccc(Cl)cc2)cn1)[C@@H]1CCN(c2ncnc3[nH]ccc23)C1 [Compound 193]	20 to 50
CN(c1ccc(C(=O)N[C@@H]2CCC[C@H]2O)cn1)[C@@H]1CCN(c2ncnc3[nH]ccc23)C1 [Compound 194]	20 to 50
COc1cccc(NC(=O)c2ccc(N(C)[C@@H]3CCN(c4ncnc5[nH]ccc45)C3)nc2)c1 [Compound 196]	20 to 50
CN(c1ccc(C(=O)N[C@@H]2c3ccccc3C[C@@H]2O)cc1F)[C@@H]1CCN(c2ncnc3[nH]ccc23)C1 [Compound 203]	20 to 50
CN(c1ccc(C(=O)N[C@@H](CO)c2ccccc2)cc1Cl)[C@@H]1CCN(c2ncnc3[nH]ccc23)C1 [Compound 205]	50 to 100
CN(c1ccc(C(=O)NC(CO)c2ccccc2Cl)cc1F)[C@@H]1CCN(c2ncnc3[nH]ccc23)C1 (some centres unmarked) [Compound 207]	50 to 100
CN(c1ccc(NS(=O)(=O)c2cccs2)cn1)[C@@H]1CCN(c2ncnc3[nH]ccc23)C1 [Compound 214]	50 to 100

The remaining lines, values ahead:

inhibition at 0.3 µM [%]	SMILES
50 to 100	CN(c1ccncn1)[C@@H]1CCN(c2ncnc3[nH]ccc23)C1 [Compound 154, (R)—N-(1-(7H-pyrrolo[2,3-d]pyrimidin-4-yl)pyrrolidin-3-yl)-N-methylpyrimidin-4-amine]
50 to 100	Cc1nc(N(C)[C@@H]2CCN(c3ncnc4[nH]ccc34)C2)ccc1C#N [Compound 155]
50 to 100	CN(c1ccccn1)[C@@H]1CCN(c2ncnc3[nH]ccc23)C1 [Compound 156]
50 to 100	Cc1cc(N(C)[C@@H]2CCN(c3ncnc4[nH]ccc34)C2)ncc1C#N [Compound 157]
50 to 100	CN(c1ncc(C#N)cc1F)[C@@H]1CCN(c2ncnc3[nH]ccc23)C1 [Compound 158]
50 to 100	CN(c1ccc(-c2nn[nH]n2)cc1F)[C@@H]1CCN(c2ncnc3[nH]ccc23)C1 [Compound 161]
50 to 100	CN(c1ccc2nc[nH]c2n1)[C@@H]1CCN(c2ncnc3[nH]ccc23)C1 [Compound 163, (R)—N-(1-(7H-pyrrolo[2,3-d]pyrimidin-4-yl)pyrrolidin-3-yl)-N-methyl-3H-imidazo[4,5-b]pyridin-5-amine]
20 to 50	N#Cc1cnc2c(c1)[nH]c(=O)n2[C@@H]1CCN(c2ncnc3[nH]ccc23)C1 [Compound 165, (R)-3-(1-(7H-pyrrolo[2,3-d]pyrimidin-4-yl)pyrrolidin-3-yl)-2-oxo-2,3-dihydro-1H-imidazo[4,5-b]pyridine-6-carbonitrile]
50 to 100	COC(=O)c1ccc(N(C)[C@@H]2CCN(c3ncnc4[nH]ccc34)C2)nc1 [Compound 168]
20 to 50	CN(c1ccc(C(N)=O)cn1)[C@@H]1CCN(c2ncnc3[nH]ccc23)C1 [Compound 169, (R)-6-((1-(7H-pyrrolo[2,3-d]pyrimidin-4-yl)pyrrolidin-3-yl)(methyl)amino)nicotinamide]
20 to 50	CN(c1ccc(C(=O)NCc2ccccc2)cn1)[C@@H]1CCN(c2ncnc3[nH]ccc23)C1 [Compound 172]
50 to 100	CN(c1ccc(C(=O)N[C@H](CO)c2ccccc2)cn1)[C@@H]1CCN(c2ncnc3[nH]ccc23)C1 [Compound 174]
20 to 50	CNC(=O)c1ccc(N(C)[C@@H]2CCN(c3ncnc4[nH]ccc34)C2)nc1 [Compound 175]
50 to 100	CN(c1ccc(C(=O)N[C@@H](CO)c2ccccc2)cc1F)[C@@H]1CCN(c2ncnc3[nH]ccc23)C1 [Compound 179]
50 to 100	CC(C)[C@H](CO)NC(=O)c1ccc(N(C)[C@@H]2CCN(c3ncnc4[nH]ccc34)C2)c(F)c1 [Compound 180]
50 to 100	C[C@H](NC(=O)c1ccc(N(C)[C@@H]2CCN(c3ncnc4[nH]ccc34)C2)c(F)c1)c1ccccc1 [Compound 182]

inhibition at 0.3 µM [%]	SMILES
50 to 100	CN(c1ccc(C(=O)Nc2cccc(Cl)c2)cc1F)[C@@H]1CCN(c2ncnc3[nH]ccc23)C1 [Compound 185]
20 to 50	C[C@H](NC(=O)c1ccc(N(C)[C@@H]2CCN(c3ncnc4[nH]ccc34)C2)nc1)c1ccccc1 [Compound 188]
20 to 50	CN(c1ccc(C(=O)NC[C@H](O)c2ccccc2)cc1Cl)[C@@H]1CCN(c2ncnc3[nH]ccc23)C1 [Compound 189]
50 to 100	CN(c1ccc(C(=O)NCCO)cn1)[C@@H]1CCN(c2ncnc3[nH]ccc23)C1 [Compound 190]
50 to 100	CN(c1ccc(C(=O)Nc2ccccc2F)cn1)[C@@H]1CCN(c2ncnc3[nH]ccc23)C1 [Compound 192]
50 to 100	C[C@@H](NC(=O)c1ccc(N(C)[C@@H]2CCN(c3ncnc4[nH]ccc34)C2)nc1)c1ccccc1 [Compound 195]
50 to 100	CN(C(=O)c1ccc(N(C)[C@@H]2CCN(c3ncnc4[nH]ccc34)C2)nc1)c1ccccc1 [Compound 197]
20 to 50	CN(c1ccc(C(=O)Nc2cccnc2)cn1)[C@@H]1CCN(c2ncnc3[nH]ccc23)C1 [Compound 198]
50 to 100	CN(c1ccc(C(=O)NC(CO)c2ccc(Cl)cc2)cc1F)[C@@H]1CCN(c2ncnc3[nH]ccc23)C1 (some centres unmarked) [Compound 201]
50 to 100	CN(c1ccc(C(=O)NC[C@H](O)c2ccccc2)cc1F)[C@@H]1CCN(c2ncnc3[nH]ccc23)C1 [Compound 202]
50 to 100	CN(c1c(F)cc(C(=O)N[C@@H](CO)c2ccccc2)cc1F)[C@@H]1CCN(c2ncnc3[nH]ccc23)C1 [Compound 208]
50 to 100	COC[C@H](NC(=O)c1ccc(N(C)[C@@H]2CCN(c3ncnc4[nH]ccc34)C2)nc1)c1ccccc1 [Compound 209]
50 to 100	CN(c1ccc(NS(=O)(=O)c2ccc(F)cc2)cn1)[C@@H]1CCN(c2ncnc3[nH]ccc23)C1 [Compound 212]
20 to 50	CN(c1ccc(NS(=O)(=O)c2cc(F)ccc2F)cn1)[C@@H]1CCN(c2ncnc3[nH]ccc23)C1 [Compound 213]
50 to 100	CC(C)S(=O)(=O)Nc1ccc(N(C)[C@@H]2CCN(c3ncnc4[nH]ccc34)C2)nc1 [Compound 218]
50 to 100	CN(c1ccc(NS(=O)(=O)Cc2ccccc2F)cn1)[C@@H]1CCN(c2ncnc3[nH]ccc23)C1 [Compound 219]

Same assay, conditions: read-out: inhibition percentage (IR %)

SMILES	inhibition at 0.3 µM [%]
C#Cc1ccc(N(C)[C@@H]2CCN(c3ncnc4[nH]ccc34)C2)nc1 [Compound 162, (R)—N-(1-(7H-pyrrolo[2,3-d]pyrimidin-4-yl)pyrrolidin-3-yl)-5-ethynyl-N-methylpyridin-2-amine]	50 to 100
CN(c1ccc(C(=O)O)cn1)[C@@H]1CCN(c2ncnc3[nH]ccc23)C1 [Compound 170, (R)-6-((1-(7H-pyrrolo[2,3-d]pyrimidin-4-yl)pyrrolidin-3-yl)(methyl)amino)nicotinic acid]	50 to 100
CCS(=O)(=O)Nc1ccc(N(C)[C@@H]2CCN(c3ncnc4[nH]ccc34)C2)nc1 [Compound 210, (R)—N-6-((1(7H-pyrrolo[2,3-d]pyrimidin-4-yl)pyrrolidin-3-yl)(methyl)(amino)pyridin-3-yl)ethanesulfonamfide]	50 to 100
